Test results reported in patent publication US11213815B2, “Netwell assay plate system” (VIB VZW, priority 2016, dated 2022).

System: Arabidopsis plants
Test: Arabidopsis netwell growth assay (rosette area over time, plants grown in soil in the multiwell plate system)
Type: in vivo
Procedure: In the Arabidopsis […] growth assay, plants were grown in soil inside a 24 well […] insert plate comprising a polystyrene porous membrane with a pore size of about 420 μm, which is positioned into a 24 well irrigation plate (FIG. 1, 2). Before sowing, seeds were vernalized in water at 4 degrees Celsius for two days. Afterwards, the […] insert plate was filled with fine potting soil, or optionally with soil mixed with sand (ratio 3:1). During this process the soil (or soil with sand) was compressed two times (or optionally three times for soil/sand) by applying a light pressure onto the individual […]. A “humidity control” soil sample was taken for determination of the initial soil water humidity (see later). Next, one mL of water was added to each of the wells of the irrigation plates. The […] insert plates were positioned inside the irrigation plates and the mounted plates were sealed with (plastic) tape surrounding the edges, to prevent excessive water evaporation from the boundary wells as compared to the center wells of the 24 well plate. This was a crucial step to avoid growth differences between plants in boundary and center wells, and to obtain reproducible results. Next, the weight of the combined insert and irrigation plates was recorded. When seeds were used as samples, during the sowing of the Arabidopsis seeds, one seed was distributed in each of the wells. For germination, the […] insert plates were covered with a standard multiwell cover plate which was sealed with parafilm and was placed inside a plant growth chamber. After three days, the covers were removed and the plants continued to grow at normal atmospheric conditions. At 7 days after sowing, or when the appropriate plant stage was reached (e.g. 7 and 10 or 5 and 7 days), the plants received a (chemical) treatment. Therefore, 0.5 (optionally 0.8 mL for soil with sand) of a (chemical-containing) solution was added to each of the wells via the corresponding access holes. Each plant sample receives the supplied (same) amount of (chemical) solution. In the days following the treatment, the plants were again irrigated with water to maintain a soil water humidity of 3.5 (or optionally 0.95 for soil with sand) (see below). In the 24 well format the growth of Arabidopsis plants was typically followed for about 15 days, during which image analysis procedures were used to follow the growth of the individual plant samples over time and to quantify the growth response of these plants in response to the specific (chemical) treatments. The initial soil water humidity was determined by first drying the “humidity control” soil sample in an oven at 60 degrees Celsius, to obtain the “dry weight”. Next, taking into account the weight of the empty irrigation plates, the empty […] insert plates, and the current weight of the combined insert and irrigation plates, water was added to each of the wells to reach a “soil water humidity” of “3.5 gram water per gram of dry soil” or “3.5” (optionally, when soil with sand was used: “0.95 gram water per gram of dry soil (with sand)” was used as initial soil water humidity value). Water was added into the irrigation plate wells through the access holes present in the corresponding […] insert plate wells using a repetition pipet. Due to equal evaporation of water from individual wells within one insert plate, each well of the irrigation plate received the same amount of water, rounded to 100 μL. The water, added to the wells in the irrigation plates, is taken up by the soil present in the hollow chambers of the […] insert plate wells, through the mesh by capillary forces (FIG. 3B). This irrigation was repeated on a daily basis to prevent excessive drying of the soil in the wells. This watering regime is suitable for frequently used Arabidopsis growth conditions, but can be altered and further optimized when a plant drought-stress response is the desired testing regime. Plants were grown as described in the above […] assay method. […]

## CC(C)(C)[C@@H](O)[C@@H](Cc1ccc(Cl)cc1)n1cncn1 (racemic) [Paclobutrazol]
Example 6, 0.8 mL at 7 and 10 DAS, Paclobutrazol 10, 20, 100 μM vs 0.1% DMSO, FIG. 8B
  effect on plant growth (rosette area), dose response: plant growth retarding effect

## c1ccc(CNc2ncnc3nc[nH]c23)cc1 [BAP, 6-Benzylaminopurine]
Example 2, 0.5 mL treatment solution at 8 DAS, 10 μM Kresoxim-methyl or 10 μM 6-Benzylaminopurine, imaging 4-16 DAS, vs water control, FIG. 4
  effect on plant growth (average projected rosette area over time): shoot growth inhibition

## O=C(O)Cc1cccc2ccccc12 [NAA, 1-Naphthaleneacetic acid]
Example 5, 0.8 mL at 7 and 10 DAS, 1, 10, 20, 100 μM NAA vs DMSO vehicle, imaging 4-14 DAS, FIG. 7B
  rosette size versus NAA concentration: The higher the concentration of NAA during the treatment, the smaller the rosette size
Example 5, rosette growth, concentration at which maximal inhibition was probably already reached
  maximal inhibitory concentration: ≤ 50 µM

## O=C(O)/C=C\c1ccccc1 [cis-CA, cis-cinnamic acid]
Example 6, 0.8 mL at 7 and 10 DAS, cis-CA 20, 50, 100 μM vs 0.1% DMSO, FIG. 8A
  effect on plant growth (rosette area) at higher concentration, dose response: plant growth retarding effect
Example 6, 0.8 mL at 7 and 10 DAS, cis-CA at 1 (unit not given) vs 0.1% DMSO, FIG. 8A
  effect on plant growth (rosette area) at low concentration: slightly positive effect
Example 6, cis-CA at higher concentration (20, 50, 100 μM), FIG. 8A
  toxicity for the plant at higher concentration: rather toxic for the plant
